*1 amine or outer side, *2 acyl side, *3 side chain or, on linkers, in order; H or OH if unused. Where a SMILES comes first, the peptide text is derived from it. Bridges are numbered along the chain shown (N, C = ends). [ ]: non-standard residue; d: D form. The star is where a group is joined. ξ: configuration not given here. X2 = O=C(C(N[*:1])c1ccc(OC2OC(CO)C(O)C(O)C2OC2OC(CO)C(O)C(O)C2O)cc1)[*:2]; Octa(2Z,4E)dienoyl(7-Me) = CC(C)C/C=C/C=C\C(=O)*; ξPhg(3-Cl-4-OH) = NC(C(=O)O)c1ccc(O)c(Cl)c1; X1 = NC(=O)C(O[*:3])C(N[*:1])C(=O)[*:2]; Hpg = N[CH](C(=O)O)c1ccc(O)cc1; Orn = NCCC[CH](N)C(=O)O
Assays:
[1] = tested on: tau neurofibrillary tangles; assay: Formation of tau neurofibrillary tangles in mice; format: in vivo, mouse; conditions: in feed from 3-4 weeks of age, approximately 9 months
TGFBI peptide = TGFBI peptide aggregation assay (ThT, TEM); conditions: compound/TGFBI mixture
monomeric Tau (2N4R) = monomeric Tau (2N4R) (Homo sapiens, UniProt P10636)
Chain of monomeric Tau (2N4R) (P10636 1-441 isoform P10636-8): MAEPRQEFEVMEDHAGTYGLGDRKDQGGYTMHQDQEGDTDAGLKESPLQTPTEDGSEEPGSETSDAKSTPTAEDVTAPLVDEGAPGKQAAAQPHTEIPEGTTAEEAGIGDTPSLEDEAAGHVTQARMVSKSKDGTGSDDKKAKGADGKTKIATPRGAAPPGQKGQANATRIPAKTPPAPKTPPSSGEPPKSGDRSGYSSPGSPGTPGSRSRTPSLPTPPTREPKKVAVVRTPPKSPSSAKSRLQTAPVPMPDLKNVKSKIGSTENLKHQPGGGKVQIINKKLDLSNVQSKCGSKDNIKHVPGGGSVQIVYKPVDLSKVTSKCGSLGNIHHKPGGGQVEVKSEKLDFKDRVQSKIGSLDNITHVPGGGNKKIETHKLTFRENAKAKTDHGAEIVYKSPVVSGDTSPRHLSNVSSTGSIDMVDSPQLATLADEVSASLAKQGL

[2] = tested on: NM region of the Sup35 prion protein (HA-epitope tagged NM) in N2a cells; format: cell-based; conditions: 500 nM NM fibrils, 24 h
[3] = tested on: NM region of the Sup35 prion protein (NM-GFP) in HEK cells; format: cell-based, human
[4] = tested on: Tau-induced degeneration of Drosophila eyes (GMR-Gal4/WT Tau); assay: Drosophila neurodegeneration model (Tau-induced eye degeneration); conditions: oral in food from larvae stage to adult stage; 15, 30, and 44 μM
[5] = tested on: spread of tau aggregates between nerve cells in PS19 mice; assay: Spreading of tau aggregates after intracerebral injection of tau fibrils in PS19 mice; format: in vivo, mouse; conditions: in food from two months of age; tau fibril injection four weeks after start
[6] = target: pre-formed 2N4R Tau fibrils (Homo sapiens, UniProt P10636); assay: Tau fibril dissolution assay (pre-formed fibrils, ThT span, TEM); conditions: mole ratios 1:0.3 and 1:1
Chain of pre-formed 2N4R Tau fibrils (P10636 1-441 isoform P10636-8): as above

[7] = tested on: 22 L scrapie prion infection of fibroblast cell clone L929 15.9 (PrP^Sc); format: cell-based
monomeric 2N4R Tau = monomeric 2N4R Tau (Homo sapiens, UniProt P10636); assay: 1D 1H-NMR titration of Ramoplanin A2 with unlabeled 2N4R Tau (binding epitopes); conditions: 200 μM Ramoplanin A2 : 30 μM Tau, 37° C.
Chain of monomeric 2N4R Tau (P10636 1-441 isoform P10636-8): as above

2N4R Tau [8] = target: T1, 2N4R Tau (Homo sapiens, UniProt P10636); assay: Tau pelleting assay (SDS-PAGE of soluble fraction); conditions: mole ratios 1:3 and 1:5
T1 sequence (P10636 1-441 isoform P10636-8): as above

[9] = tested on: Tau aggregation in HEK biosensor cells (TauRD^LM-GFP)
2N4R Tau [10] = target: T1, 2N4R Tau; assay: Seeded Tau aggregation assay (ThT fluorescence, TEM of the fibrils formed); conditions: Tau:Ramoplanin A2 mole ratios 1:3 and 1:5; lower Tm = faster aggregation
[11] = target: T2, amylin (human islet amyloid polypeptide or hIAPP) (Homo sapiens, UniProt P10997); assay: Amylin aggregation assay (ThT); format: biochemical; conditions: 5 μM hIAPP monomers, various doses, 37° C.
T2 construct: 5 μM amylin (human islet amyloid polypeptide or hIAPP) monomers
T2 sequence (P10997 34-70 limits assumed): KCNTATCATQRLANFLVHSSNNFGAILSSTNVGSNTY

[12] = target: N-terminally acetylated alpha-synuclein (Asyn) (Homo sapiens, UniProt P37840); assay: Seeded α-synuclein aggregation assay (ThT fluorescence, TEM); format: biochemical
Protocol: (§1) (A, B) Thioflavin-T (ThT) fluorescence curves of N-terminally acetylated alpha-synuclein (Asyn) in the absence (cross) and presence of a 3-fold excess (white circles) of compound. […] Quantitative analysis of Asyn aggregation kinetics was performed by nonlinear regression with sigmoidal fitting to determine the midpoint value (Tm) of the fluorescence curve as well as the fluorescence span. Unpaired two-tailed t-test was performed to test the null hypothesis (p≤0.0332(*), p≤0.002(**), p≤0.0002 (***), p≤0.0001 (****)). […] (C) TEM imaging analysis of the compound/Asyn mixtures. Scale bars correspond to 200 nm.
as §1, with “ThT” for “Thioflavin-T (ThT)”, “circles or triangles)” for “circles)”
(A) ThT fluorescence curves of N-terminally acetylated alpha-synuclein (Asyn) in the absence (cross) and presence of a 3-fold excess (white circles) of compound. […] Quantitative analysis of Asyn aggregation kinetics was performed by nonlinear regression with sigmoidal fitting to determine the midpoint value (Tm) of the fluorescence curve as well as the fluorescence span.
Asyn protein stock solutions were prepared in 50 mM HEPES at pH 7.4 with 100 mM NaCl. Stocks of compounds were prepared in the same buffer (500 μM) or as 10 mM compound in DMSO. […] The microplate was likewise subjected to the incubation and fluorescence measurement program used in in vitro assay 1. After about 2-4 days of incubation, ThT fluorescence emission reached the maximal value and the Asyn fibril-containing mixture was collected as “fibril seed” mixture for subsequent Asyn aggregation experiments.

SMILES: CC(C)C/C=C/C=C\C(=O)NC(CC(N)=O)C(=O)NC1C(=O)NC(c2ccc(O)cc2)C(=O)NC(CCCN)C(=O)NC(C(C)O)C(=O)NC(c2ccc(O)cc2)C(=O)NC(c2ccc(O)cc2)C(=O)NC(C(C)O)C(=O)NC(Cc2ccccc2)C(=O)NC(CCCN)C(=O)NC(c2ccc(OC3OC(CO)C(O)C(O)C3OC3OC(CO)C(O)C(O)C3O)cc2)C(=O)NC(C(C)O)C(=O)NC(c2ccc(O)cc2)C(=O)NCC(=O)NC(CC(C)C)C(=O)NC(C)C(=O)NC(c2ccc(O)c(Cl)c2)C(=O)OC1C(N)=O (stereo not shown) [Ramoplanin A2] ({Octa(2Z,4E)dienoyl(7-Me)}-N[X1][Hpg][Orn]T[Hpg][Hpg]TF[Orn][X2]T[Hpg]GLA[ξPhg(3-Cl-4-OH)]; ester 2-C; configuration not given here)
- formation of tau neurofibrillary tangles [1]: inhibits the formation of tau neurofibrillary tangles
- TGFBI fibril morphology (TEM) (TGFBI peptide): shorter fibrils
- binding to monomeric Tau (CSPs above ~0.0025 ppm with signal broadening I/I0<1) (monomeric Tau (2N4R); 18 μM 15N Tau, mole ratios 1:0.3 to 1:30): binding of Ramoplanin A2 to specific regions/residues in the monomeric form of Tau
- conformational state of Tau (chemical shift dispersion along 1H dimension) (monomeric Tau (2N4R); 10-fold excess of Ramoplanin A2): Tau remains disordered
- percent of cells with aggregates of the prion protein [2]: reduced with increasing concentration
- percent of cells with aggregates of the prion protein [3]: reduced with increasing concentration
- percent degeneration of Drosophila eyes [4]: lowers the percent degeneration of Drosophila eyes
- spread of tau aggregates between nerve cells and formation of new tau fibrils [5]: hinders the spread of tau aggregates between nerve cells and the formation of new tau fibrils
- dissolution of Tau fibrils [6]: not dissolved
- pathogenic prion protein PrP^Sc (proteinase K resistant, Western blot) [7]: reduction
- total PrP (Western blot) ([7]; 3 μM, 9 d): reduction
- prion infection in cellular model ([7]; 3 μM, 9 d, 1% 22 L scrapie brain homogenate): prevents prion infection in cellular model
- involvement of the peptide backbone of Ramoplanin A2 in binding (proton CSPs) (monomeric 2N4R Tau): involved in binding to monomeric Tau
- amount of soluble Tau (SDS-PAGE) (2N4R Tau [8]): increased
- Tau aggregate formation ([9]; induced by Tau^P301L fibrils, 0.25 μM to 40 μM, 48 hours, with or without lipofectamine): decreased aggregate formation
- aggregation of Tau ([9]; induced by brain homogenate of PS19 mice, 0.25 μM to 26.5 μM, 24 hours, lipofectamine): inhibits the aggregation of Tau in HEK biosensor cells
- inhibition of seeded Tau aggregation ([9]; induced by cell lysate containing Tau aggregates, 0.25 μM to 40 μM, 22 h, lipofectamine): showed inhibition of seeded Tau aggregation
- inhibition of seeded Tau aggregation, comparison among the tested compounds ([9]; induced by cell lysate, 0.25 μM to 40 μM, 22 h, lipofectamine): strongest dose-dependent inhibition of seeded Tau aggregation
- midpoint values (Tm) of the fluorescence curves (2N4R Tau [10]): accelerates Tau fibrillization
- in vitro aggregation of amylin (final ThT fluorescence, t=50 h) [11]: inhibit the in vitro aggregation of amylin
- in vitro aggregation of alpha-synuclein (ThT fluorescence) ([12]; 3-fold excess of compound, 25 μM Asyn monomers, 1% (v/v) fibril seeds, 37° C.): inhibit the in vitro aggregation
- Asyn fibril morphology (TEM) ([12]; compound/Asyn mixtures): shorter fibrils

— patent US20260199426A1, “CYCLIC LIPOPEPTIDE ANTIBIOTIC COMPOUNDS FOR USE IN THE TREATMENT OF PROTEIN AGGREGATION DISEASE” (DEUTSCHES ZENTRUM FÜR NEURODEGENERATIVE ERKRANKUNGEN E. V., priority 2022, published 2026)
